Results published in patent US20170128518A1, “METHODS AND MATERIALS FOR IDENTIFYING AND TREATING MAMMALS RESISTANT TO PROTEASOME INHIBITOR TREATMENTS” (Mayo Foundation for Medical Education and Research, priority 2014, published 2017).
“Also recorded” adds a separate entry of the source.

Legend:
[1] = target: T1, proteasome b1 subunit (caspase-like activity) (Homo sapiens, UniProt P28072); assay: Proteasomal activity assay, caspase-like (LLE-AMC), WM cells; assay type: biochemical; details: 10 nM; BCWM.1 and BCWM.1/BR shown
T1 construct: Cells were lysed at 4×10^6 cells/ml in proteasomal activity assay buffer; endogenous in cells; host or cells: BCWM.1 and BCWM.1/BR (lysates)
Method: FIGS. 17A-17D are a series of graphs plotting the effects of bortezomib (10 nM), carfilzomib (10 nM) and b-AP15 (10 nM) on caspase-like and trypsin-like proteasomal activities, as assessed in three WT and three BR WM cell lines in vitro using the fluorogenic substrates LLE-AMC (caspase-like activity) and LRR-AMC (trypsin-like activity). Reactions were incubated at 37° C. for 1 hour and the fluorescence was measured at 360/460 and expressed as relative fluorescence units (RFU), using BioTek synergy HT plate reader. Data from two representative cell lines (BCWM.1 and its BR subclone) are shown.
Cells were lysed at 4×10^6 cells/ml in proteasomal activity assay buffer [assay buffer; 25 mmol/1 HEPES buffer, pH7.5 containing 0.5 mmol/1 EDTA, 0.05% Nonidet P-40, 0.01% sodium dodecyl sulfate (SDS)] and immediately used in the assay. Enzyme reactions were performed in 96-well plates with 100 μl of final volume containing […] fluorogenic peptide substrates. The substrates used were LLVY-AMC for chymotrypsin like activity, LLE-AMC for caspase-like activity and LRR-AMC for trypsin-like activity. Reactions were incubated at 37° C. for 1 hour and fluorescence was measured at 360/460 using a BioTek synergy HT plate reader (BioTek, Winooski, Vt.).

[2] = tested on: BCWM.1/BR; assay: MTS viability assay, BCWM.1/BR; assay type: cell-based, human; details: 72-h MTS assay
Method: FIGS. 4A-4D show the characterization of BR WM models, established by subjecting WM cancer cell lines (n=3) chronic drug exposure. […] FIG. 4C is a graph plotting relative fluorescence units in an assay to examine PSMB5 enzyme function by flow cytometry.
(§1) Twenty thousand cells/200 μl in quadruplicates were incubated with serially diluted b-AP15 (1-1000 nmol/l) in 96-well plates at 37° C. for 72 hours. MTS (3-(4,5-dimethylthiazol-2-yl)-5-(3-carboxymethoxyphenyl)-2-(4-sulfophenyl)-2H-tetrazolium) reagent (Molecular Probes, Eugene, Oreg.) was added at 40 μl/well and the plates were further incubated at 37° C. for 3 hours and the developed color was read at 490 nm using a BioTek synergy HT plate reader against blanks with no cells.

[3] = tested on: BCWM.1/BR cells; assay: Annexin-V apoptosis assay, BCWM.1/BR; assay type: cell-based, human
Method: FIG. 18 is a series of representative heat density plots showing Annexin-V staining in BCWM.1 and BCWM.1/BR±b-AP15 treatment, indicating about 46% cell death in BCWM.1 cells (top panels) and about 42% cell death in BCWM.1/BR cells (bottom panels).
(§2) Apoptosis was measured using the Annexin V binding assay kit from BD Biosciences according to the manufacturer's instructions. Briefly, at the end of the treatment, cells were washed with PBS and 1×10^6 cells were re-suspended in 100 μl of binding buffer. Fluorescein isothiocycanate (FITC)-labelled Annexin V (5 μl) and propidium iodide (10μ were added to each sample and incubated in the dark for 15 minutes at room temperature. The cells were subsequently analyzed by flow cytometry using BD Accuri, the C6 flow cytometer and its software. Data from 10,000 events per sample were collected and analyzed.

[4] = tested on: RPCI-WM1; assay: MTS viability assay, RPCI-WM1; assay type: cell-based, human; details: 72-h MTS assay
Method: as §1

[5] = tested on: CD19+/CD138+ WM cells from human patients; assay: Annexin-V apoptosis assay, primary patient-derived WM cells; assay type: cell-based
Method: FIGS. 12A-12D are a series of graphs and Western blots showing b-AP15 induction of tumor-specific apoptosis in WM cell lines and primary patient-derived WM cells. FIG. 12A is a graph plotting cell death as a percentage of control cell death for all available WM cell lines (n=6, WT and BR derivatives) after treatment with the indicated concentrations of b-AP15, followed by staining with annexin-V and propidium iodide and then flow cytometry to examine apoptosis. […] Each experiment was conducted a minimum of three times with control cells (no drug treatment) showing a viability ([…] and propidium iodide-negative population) of >85%. Following treatment, the percentage of cells affected by b-AP15 was calculated by normalizing data from treated cells relative to the control (untreated) cells. […]
as §2, with “Briefly, at the end of the treatment, cells were washed with PBS and 1×10^6 cells were re-suspended in 100 μl of binding buffer.” left out

[6] = tested on: NF-κB reporter in HEK293 cells expressing MYD88 L265P; assay: NF-κB luciferase reporter assay; assay type: cell-based, human; details: 24 hours; 0.5 μmol/l
Method: HEK293 cells expressing MYD88 L265P were generated as described elsewhere (Ansell et al., Blood Cancer J, 4:e183, 2014). Cells were transiently transfected with 0.5 ng Renilla and 0.25 μg of a pNFκB-luciferase reporter plasmid/1.0×10^6 cells. b-AP15 was added to each well at the indicated doses; after 24 hours, luciferase activity was measured in cell extracts and normalized against Renilla with the Dual Luciferase Kit (Promega, Madison, Wis.).

[7] = tested on: RPCI-WM1/BR; assay: MTS viability assay, RPCI-WM1/BR; assay type: cell-based, human; details: 72-h MTS assay
Method: as §1

T1 sequence (P28072 whole entry): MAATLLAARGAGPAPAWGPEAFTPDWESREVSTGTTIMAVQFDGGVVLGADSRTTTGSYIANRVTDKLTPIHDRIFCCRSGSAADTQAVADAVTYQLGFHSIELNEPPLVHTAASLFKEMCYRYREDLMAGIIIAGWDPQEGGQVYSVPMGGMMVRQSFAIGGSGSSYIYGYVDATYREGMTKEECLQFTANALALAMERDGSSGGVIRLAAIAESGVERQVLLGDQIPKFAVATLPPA

Compound: C=CC(=O)N1C/C(=C\c2ccc([N+](=O)[O-])cc2)C(=O)/C(=C/c2ccc([N+](=O)[O-])cc2)C1 [b-AP15]
- caspase-like proteasomal activity [1]: no change in caspase-like activity
- IC50 [2]: 16 nM
- cell death (Annexin-V staining) [3]: about 42%
- IC50 [4]: 16 nM
- apoptosis (annexin-V positivity) ([5]; 0.5 μmol/l, 12 hours): Significant annexin-V positivity; also recorded: Robust apoptotic cell death
- cells undergoing total loss of viability ([5]; 1 μmol/l): > 90%
- NF-κB luciferase reporter activity [6]: significantly reduced; also recorded: significant reduction
- IC50 [7]: 57 nM
